For one assay, the system named is Escherichia coli. Put plainly: Antibacterial activity against Escherichia coli at </=64 ug/mL; No activity. The assay is classed as functional, organism-based.
For assay [1], the system named is Staphylococcus aureus. Put plainly: Antibacterial activity against Staphylococcus aureus; Range is 8-16. In kind it is functional.
For assay [2], the system named is Enterococcus faecalis. Kind of assay: Antibacterial activity against Enterococcus faecalis; Range is 64->64. The assay is classed as functional.
Assay [3] relates to Enterococcus faecalis. Put plainly: Antibacterial activity against Enterococcus faecalis; Range is 4-8. The assay is classed as functional.
Assay [4] concerns Staphylococcus aureus. Kind of assay: Antibacterial activity against Staphylococcus aureus; Range is 1-2. In kind it is functional.
The test system of a further assay is Mus musculus. Put plainly: Antibacterial activity against Staphylococcus aureus infection in mouse after i.v. administration (Vancomycin, ED50= 1.0 mg/kg ). In kind it is functional. Conditions: route intravenous.
In assay [5] the test system is Enterococcus faecalis. Put plainly: Antibacterial activity against Enterococcus faecalis; Range is 1-4. In kind it is functional.
The subject of assay [6] is Staphylococcus aureus. Kind of assay: Antibacterial activity against Staphylococcus aureus; Range is 0.5-1. The assay is classed as functional.
Assay [7] has as its system Staphylococcus aureus. Kind of assay: Antibacterial activity against Staphylococcus aureus; Range is 4-8. In kind it is functional.
For assay [8], the system named is Enterococcus faecalis. Kind of assay: Antibacterial activity against Enterococcus faecalis; Range is 16-32. In kind it is functional.
In assay [9] the test system is Enterococcus faecalis. Kind of assay: Antibacterial activity against Enterococcus faecalis; Range is 8-16. The assay is classed as functional.
The test system of assay [10] is Staphylococcus aureus. Kind of assay: Antibacterial activity against Staphylococcus aureus; Range is 2-4. In kind it is functional.
For assay [11], the system named is Staphylococcus aureus. Kind of assay: Antibacterial activity against Staphylococcus aureus; Range is 2-8. The assay is classed as functional.
In assay [12] the test system is Enterococcus faecalis. Put plainly: Antibacterial activity against Enterococcus faecalis; Range is 4-16. The assay is classed as functional.
For assay [13], the system named is Staphylococcus aureus. Put plainly: Antibacterial activity against Staphylococcus aureus; Range is 0.5-2. In kind it is functional.
For assay [14], the system named is Enterococcus faecalis. Kind of assay: Antibacterial activity against Enterococcus faecalis; Range is 1-2. The assay is classed as functional.
Assay [15] has as its system Staphylococcus aureus. Kind of assay: Antibacterial activity against Staphylococcus aureus. In kind it is functional.
Assay [16] relates to Enterococcus faecalis. Kind of assay: Antibacterial activity against Enterococcus faecalis; Range is 4-32. In kind it is functional.
Assay [17] concerns Enterococcus faecalis. Kind of assay: Antibacterial activity against Enterococcus faecalis; Range is 16-64. The assay is classed as functional.

Values after ≈ are worked out from the molar mass of the structure shown.

The record followed here is ChEMBL document CHEMBL1146703, “Mannopeptimycin esters and carbonates, potent antibiotic agents against drug-resistant bacteria” (2004).

What is called MIC is the lowest concentration found to suppress growth. Take `C[C@@H](c1ccccc1)[C@@H]1NC(=O)CNC(=O)[C@H](CO)NC(=O)[C@@H]([C@@H](O)[C@@H]2CNC(N)N2[C@H]2O[C@H](CO)[C@@H](O)[C@H](O)[C@@H]2O)NC(=O)[C@H]([C@@H](O)[C@@H]2CNC(N)N2)NC(=O)[C@@H](Cc2ccc(O[C@H]3O[C@H](COC(=O)Cc4ccccc4)[C@@H](O[C@H]4O[C@H](CO)[C@@H](O)[C@H](O)[C@@H]4O)[C@H](O)[C@@H]3O)cc2)NC1=O` (stereo not given in full): the MIC entry with Escherichia coli was “No activity”; against Staphylococcus aureus [1], 16 µg/mL (≈ 11.3 µM); against Enterococcus faecalis [2], 64 µg/mL (≈ 45.2 µM).

A word on the ED50: it is the dose at which the effect has come halfway, by size or by number of responders. Take `CCCCCC(=O)OC[C@H]1O[C@H](O[C@H]2[C@H](O)[C@H](O)[C@@H](Oc3ccc(C[C@H]4NC(=O)[C@H]([C@@H](C)c5ccccc5)NC(=O)CNC(=O)[C@H](CO)NC(=O)[C@@H]([C@@H](O)[C@@H]5CNC(N)N5[C@H]5O[C@H](CO)[C@@H](O)[C@H](O)[C@@H]5O)NC(=O)[C@H]([C@@H](O)[C@@H]5CNC(N)N5)NC4=O)cc3)O[C@@H]2CO)[C@@H](O)[C@@H](O)[C@@H]1O` (stereo not given in full): the MIC result is “No activity” with Escherichia coli, 8 µg/mL (≈ 5.72 µM) against Enterococcus faecalis [3] and 2 µg/mL (≈ 1.43 µM) against Staphylococcus aureus [4]. This compound also registered an ED50 with Mus musculus of 4 mg/kg.

In the case of `CCCCCCC(=O)OC[C@H]1O[C@H](O[C@H]2[C@H](O)[C@H](O)[C@@H](Oc3ccc(C[C@H]4NC(=O)[C@H]([C@@H](C)c5ccccc5)NC(=O)CNC(=O)[C@H](CO)NC(=O)[C@@H]([C@@H](O)[C@@H]5CNC(N)N5[C@H]5O[C@H](CO)[C@@H](O)[C@H](O)[C@@H]5O)NC(=O)[C@H]([C@@H](O)[C@@H]5CNC(N)N5)NC4=O)cc3)O[C@@H]2CO)[C@@H](O)[C@@H](O)[C@@H]1O` (stereo not given in full), the figures for the MIC result in the assay on Escherichia coli, against Enterococcus faecalis [5] and against Staphylococcus aureus [6] were “No activity”, 4 µg/mL (≈ 2.83 µM) and 1 µg/mL (≈ 0.708 µM), respectively. Further, in the assay on Mus musculus, the 50% effect level (ED50) was put at a dose of 4 mg/kg.

As to `CCCCCC(=O)OC[C@H]1O[C@H](Oc2ccc(C[C@H]3NC(=O)[C@H]([C@@H](C)c4ccccc4)NC(=O)CNC(=O)[C@H](CO)NC(=O)[C@@H]([C@@H](O)[C@@H]4CNC(N)N4[C@H]4O[C@H](CO)[C@@H](O)[C@H](O)[C@@H]4O)NC(=O)[C@H]([C@@H](O)[C@@H]4CNC(N)N4)NC3=O)cc2)[C@@H](O)[C@@H](O)[C@@H]1O[C@H]1O[C@H](CO)[C@@H](O)[C@H](O)[C@@H]1O` (stereo not given in full), the values for the MIC result in the assay with Escherichia coli, against Staphylococcus aureus [7] and against Enterococcus faecalis [8] were “No activity”, 8 µg/mL (≈ 5.72 µM) and 32 µg/mL (≈ 22.9 µM), respectively.

For the compound `C[C@@H](c1ccccc1)[C@@H]1NC(=O)CNC(=O)[C@H](CO)NC(=O)[C@@H]([C@@H](O)[C@@H]2CNC(N)N2[C@H]2O[C@H](CO)[C@@H](O)[C@H](O)[C@@H]2O)NC(=O)[C@H]([C@@H](O)[C@@H]2CNC(N)N2)NC(=O)[C@@H](Cc2ccc(O[C@H]3O[C@H](COC(=O)C(c4ccccc4)c4ccccc4)[C@@H](O[C@H]4O[C@H](CO)[C@@H](O)[C@H](O)[C@@H]4O)[C@H](O)[C@@H]3O)cc2)NC1=O` (stereo not given in full), the MIC entry in the assay on Escherichia coli is “No activity”; against Enterococcus faecalis [3] it was 8 µg/mL (≈ 5.36 µM); against Staphylococcus aureus [4], 2 µg/mL (≈ 1.34 µM).

Regarding `C[C@@H](c1ccccc1)[C@@H]1NC(=O)CNC(=O)[C@H](CO)NC(=O)[C@@H]([C@@H](O)[C@@H]2CNC(N)N2[C@H]2O[C@H](CO)[C@@H](O)[C@H](O)[C@@H]2O)NC(=O)[C@H]([C@@H](O)[C@@H]2CNC(N)N2)NC(=O)[C@@H](Cc2ccc(O[C@H]3O[C@H](CO)[C@@H](O[C@H]4O[C@H](COC(=O)Cc5ccccc5)[C@@H](O)[C@H](O)[C@@H]4O)[C@H](O)[C@@H]3O)cc2)NC1=O` (stereo not given in full), the values for the MIC entry in the assay with Escherichia coli, with Enterococcus faecalis [9] and in the assay on Staphylococcus aureus [10] were “No activity”, 16 µg/mL (≈ 11.3 µM) and 4 µg/mL (≈ 2.82 µM), respectively.

Consider `C[C@@H](c1ccccc1)[C@@H]1NC(=O)CNC(=O)[C@H](CO)NC(=O)[C@@H]([C@@H](O)[C@@H]2CNC(N)N2[C@H]2O[C@H](CO)[C@@H](O)[C@H](O)[C@@H]2O)NC(=O)[C@H]([C@@H](O)[C@@H]2CNC(N)N2)NC(=O)[C@@H](Cc2ccc(O[C@H]3O[C@H](CO)[C@@H](O[C@H]4O[C@H](COC(=O)OCc5ccccc5)[C@@H](O)[C@H](O)[C@@H]4O)[C@H](O)[C@@H]3O)cc2)NC1=O` (stereo not given in full), for which the MIC result in the assay on Escherichia coli is “No activity”; in the assay with Enterococcus faecalis [9] it was 16 µg/mL (≈ 11.2 µM); in the assay with Staphylococcus aureus [11], 8 µg/mL (≈ 5.58 µM).

As to `CCCCCCC(=O)OC[C@H]1O[C@H](Oc2ccc(C[C@H]3NC(=O)[C@H]([C@@H](C)c4ccccc4)NC(=O)CNC(=O)[C@H](CO)NC(=O)[C@@H]([C@@H](O)[C@@H]4CNC(N)N4[C@H]4O[C@H](CO)[C@@H](O)[C@H](O)[C@@H]4O)NC(=O)[C@H]([C@@H](O)[C@@H]4CNC(N)N4)NC3=O)cc2)[C@@H](O)[C@@H](O)[C@@H]1O[C@H]1O[C@H](CO)[C@@H](O)[C@H](O)[C@@H]1O` (stereo not given in full), the MIC result with Escherichia coli was “No activity”; with Enterococcus faecalis [12], 16 µg/mL (≈ 11.3 µM); in the assay with Staphylococcus aureus [13] it was 2 µg/mL (≈ 1.42 µM).

For the compound `C[C@@H](c1ccccc1)[C@@H]1NC(=O)CNC(=O)[C@H](CO)NC(=O)[C@@H]([C@@H](O)[C@@H]2CNC(N)N2[C@H]2O[C@H](CO)[C@@H](O)[C@H](O)[C@@H]2O)NC(=O)[C@H]([C@@H](O)[C@@H]2CNC(N)N2)NC(=O)[C@@H](Cc2ccc(O[C@H]3O[C@H](CO)[C@@H](O[C@H]4O[C@H](COC(=O)C(c5ccccc5)c5ccccc5)[C@@H](O)[C@H](O)[C@@H]4O)[C@H](O)[C@@H]3O)cc2)NC1=O` (stereo not given in full), the MIC entry in the assay on Escherichia coli was “No activity”; with Enterococcus faecalis [14] it was 2 µg/mL (≈ 1.34 µM); against Staphylococcus aureus [6], 1 µg/mL (≈ 0.67 µM). The compound further registered an ED50 in the assay with Mus musculus of 0.29 mg/kg.

As for `CCCC(CCC)C(=O)OC[C@H]1O[C@H](Oc2ccc(C[C@H]3NC(=O)[C@H]([C@@H](C)c4ccccc4)NC(=O)CNC(=O)[C@H](CO)NC(=O)[C@@H]([C@@H](O)[C@@H]4CNC(N)N4[C@H]4O[C@H](CO)[C@@H](O)[C@H](O)[C@@H]4O)NC(=O)[C@H]([C@@H](O)[C@@H]4CNC(N)N4)NC3=O)cc2)[C@@H](O)[C@@H](O)[C@@H]1O[C@H]1O[C@H](CO)[C@@H](O)[C@H](O)[C@@H]1O` (stereo not given in full), the MIC with Staphylococcus aureus [15] is 4 µg/mL (≈ 2.81 µM); in the assay on Escherichia coli it was “No activity”; in the assay with Enterococcus faecalis [16], 32 µg/mL (≈ 22.4 µM).

Turning to `CC(C)CC(=O)O[C@@H]1[C@@H](O[C@H]2[C@H](O)[C@H](O)[C@@H](Oc3ccc(C[C@H]4NC(=O)[C@H]([C@@H](C)c5ccccc5)NC(=O)CNC(=O)[C@H](CO)NC(=O)[C@@H]([C@@H](O)[C@@H]5CNC(N)N5[C@H]5O[C@H](CO)[C@@H](O)[C@H](O)[C@@H]5O)NC(=O)[C@H]([C@@H](O)[C@@H]5CNC(N)N5)NC4=O)cc3)O[C@@H]2CO)O[C@H](CO)[C@@H](O)[C@@H]1O` (stereo not given in full), the MIC is 8 µg/mL (≈ 5.78 µM) in the assay with Staphylococcus aureus [15], “No activity” with Escherichia coli and 64 µg/mL (≈ 46.3 µM) in the assay with Enterococcus faecalis [2]. This compound also came in with an ED50 with Mus musculus of 3.5 mg/kg.

In the case of `C[C@@H](c1ccccc1)[C@@H]1NC(=O)CNC(=O)[C@H](CO)NC(=O)[C@@H]([C@@H](O)[C@@H]2CNC(N)N2[C@H]2O[C@H](CO)[C@@H](O)[C@H](O)[C@@H]2O)NC(=O)[C@H]([C@@H](O)[C@@H]2CNC(N)N2)NC(=O)[C@@H](Cc2ccc(O[C@H]3O[C@H](COC(=O)OCc4ccccc4)[C@@H](O[C@H]4O[C@H](CO)[C@@H](O)[C@H](O)[C@@H]4O)[C@H](O)[C@@H]3O)cc2)NC1=O` (stereo not given in full), the MIC result in the assay with Escherichia coli is “No activity”; against Enterococcus faecalis [17] it was 64 µg/mL (≈ 44.6 µM); in the assay with Staphylococcus aureus [7], 8 µg/mL (≈ 5.58 µM).
